Results taken from patent US20230265116A1, “DEGRADATION OF (EGFR) BY CONJUGATION OF EGFR INHIBITORS WITH E3 LIGASE LIGAND AND METHODS OF USE” (BEIGENE, LTD., priority 2020, published 2023).
Where two headings read alike, the source gives them in different places.

Columns and labels:
[1] = tested on: EGFR Del19/T790M/C797S (H1975-clone #28); experiment: EGFR degradation HTRF assay, H1975-clone #28 DTC cells; assay type: cell-based
Procedure: H1975-clone #28(Del19/T790M/C797S) and H1975-clone #23(Del19/C797S). EGFR-Del19/T790M/C797S and EGFR-Del19/C797S were stably expressed in H1975 cell lines by lentivirus-mediated over-expression, respectively. The EGFR over-expressed cells then underwent gene knockout, in which the EGFR targeting sgRNA was designed to only target the endogenous EGFR copies and preserve the exogenous EGFR copies. Followed by the gene knockout, the edited H1975 cells were seeded in 96 well plates at the concentration of 1 cell/well, cultured for about 2 weeks to allow single clones formation. The formed clones were screened by DNA sequencing and whole exon sequencing analysis for the desired edition. H1975-clone #28 and H1975-clone #23 were finally confirmed as homozygous Del19/T790M/C797S EGFR and Del19/C797S EGFR clones, respectively.
(§1) BaF3 WT(wild type), BaF3-LTC(L858R/T790M/C797S) and BaF3-DTC(Del19/T790M/C797S) cells are treated with compounds diluted in 0.2% DMSO cell culture medium and incubate for 16h, 37° C., 5% CO2, H1975-#36, H1975-#28, H1975-#23 and HCC827 cells are treated with compounds diluted in 0.2% DMSO cell culture medium on day 2, incubate for 16h, 37° C., 5% CO2.the final concentriation of compounds in all assay is start with 10 uM, 5-fold dilution, total 8 doses were included.
(§2) After 16h treatment, add HTRF lysis buffer to each well; seal the plate and incubate 1 hour at room temperature on a plate shaker; Once the cells are lysed, 16 μL of cell lysate are transferred to a PE 384-well HTRF detection plate; 4 μL of pre-mixed HTRF antibodies are added to each well; Cover the plate with a plate sealer, spin 1000 rpm for 1 min, Incubate overnight at room temperature; Read on BMG PheraStar with HTRF protocol (337 nm-665 nm-620 nm).
(§3) The inhibition (degradation) percentage of the compound was calculated by the following equation: Inhibition percentage of Compound=100-100×(Signal-low control)/(High control-low control), wherein signal=each test compound group
(§4) High control=Cell group with added DMSO and without compound, indicating microplate readings without EGFR degradation;
(§5) Dmax is the maximum percentage of inhibition (degradation).
(§6) The IC50 (DC50) value of a compound can be obtained by fitting the following equation
(§7) Y=Bottom+(TOP−Bottom)/(1+((IC50/X)^hillslope))
(§8) Wherein, X and Y are known values, and IC50, Hillslope, Top and Bottom are the parameters obtained by fitting with software. Y is the inhibition percentage (calculated from the equation), X is the concentration of the compound; IC50 is the concentration of the compound when the 50% inhibition is reached. The smaller the IC50 value is, the stronger the inhibitory ability of the compound is. Vice versa, the higher the IC50 value is, the weaker the inhibitory ability of the compound is; Hillslope represents the slope of the fitted curve, generally around 1*; Bottom represents the minimum value of the curve obtained by data fitting, which is generally 0%±20%; Top represents the maximum value of the curve obtained by data fitting, which is generally 100%±20%. The experimental data were fitted by calculating and analyzing with Dotmatics data analysis software.

[2] = target: T1, EGFR L858R/T790M/C797S (BaF3-LTC cells) (Homo sapiens, UniProt P00533, C797S/L858R/T790M); experiment: EGFR degradation HTRF assay, BaF3-LTC cells; assay type: cell-based; conditions: BaF3-LTC cells; for DC50: EGFR degradation, IC50 (DC50) from curve fit, read-out: DC50(nM) BaF3-LTC; for Dmax: maximum percentage of inhibition (degradation), read-out: Dmax (%) BaF3-LTC
T1 construct: expressed in transfected cells; host or cells: BaF3
T1 sequence (P00533 25-1210 T790M/C797S/L858R): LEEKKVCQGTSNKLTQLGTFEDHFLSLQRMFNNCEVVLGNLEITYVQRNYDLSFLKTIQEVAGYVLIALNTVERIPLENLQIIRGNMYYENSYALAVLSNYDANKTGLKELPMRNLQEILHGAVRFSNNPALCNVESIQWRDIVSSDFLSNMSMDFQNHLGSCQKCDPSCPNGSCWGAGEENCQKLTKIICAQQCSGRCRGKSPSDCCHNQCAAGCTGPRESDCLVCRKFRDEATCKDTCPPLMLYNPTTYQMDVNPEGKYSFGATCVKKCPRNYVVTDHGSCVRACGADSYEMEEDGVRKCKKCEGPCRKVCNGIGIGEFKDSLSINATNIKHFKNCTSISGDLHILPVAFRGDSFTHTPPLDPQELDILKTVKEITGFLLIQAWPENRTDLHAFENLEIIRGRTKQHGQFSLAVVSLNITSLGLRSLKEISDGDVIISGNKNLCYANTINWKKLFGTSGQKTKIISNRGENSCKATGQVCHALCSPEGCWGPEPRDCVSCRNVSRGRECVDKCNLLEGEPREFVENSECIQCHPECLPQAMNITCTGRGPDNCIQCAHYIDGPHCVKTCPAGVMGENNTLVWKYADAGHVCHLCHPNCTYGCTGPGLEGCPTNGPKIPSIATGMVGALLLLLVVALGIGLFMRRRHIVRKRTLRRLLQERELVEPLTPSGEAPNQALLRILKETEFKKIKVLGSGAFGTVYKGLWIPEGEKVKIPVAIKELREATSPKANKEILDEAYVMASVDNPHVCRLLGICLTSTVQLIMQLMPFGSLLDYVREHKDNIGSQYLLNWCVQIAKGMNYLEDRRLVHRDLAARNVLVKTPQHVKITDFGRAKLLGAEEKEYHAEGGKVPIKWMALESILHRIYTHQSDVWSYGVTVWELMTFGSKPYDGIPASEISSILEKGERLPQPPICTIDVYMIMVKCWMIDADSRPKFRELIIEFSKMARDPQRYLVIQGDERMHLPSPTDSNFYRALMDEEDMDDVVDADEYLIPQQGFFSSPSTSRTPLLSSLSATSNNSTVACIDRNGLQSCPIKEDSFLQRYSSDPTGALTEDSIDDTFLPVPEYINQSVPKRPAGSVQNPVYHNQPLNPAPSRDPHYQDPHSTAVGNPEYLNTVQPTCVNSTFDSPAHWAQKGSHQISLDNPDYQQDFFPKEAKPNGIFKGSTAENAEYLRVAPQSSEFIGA
Procedure: as §1, §2, §3, §4, §5, §6, §7, §8

[3] = H1975 # 28 DTC cells; EGFR degradation, IC50 (DC50) from curve fit; read-out: DC50(nM) H1975 # 28 DTC
[4] = H1975 # 28 DTC cells; maximum percentage of inhibition (degradation)

| DC50 [1, 3] | DC50 [2] | Dmax [2] | Structure (SMILES) | Dmax (%) H1975 # 28 DTC [1, 4] | DC50 ([1]; read-out: DC50(nM) H1975 # 28 DTC; H1975 # 28 DTC cells; EGFR degradation, IC50 (DC50) from curve fit) |
| --- | --- | --- | --- | --- | --- |
| 1.06 nM | 8.54 nM | 93.1% | CCOc1cc(N2CCC(N3CCN(CC4CCN(c5cccc6c5oc(=O)n6C5CCC(=O)NC5=O)CC4)CC3)CC2)c(CC)cc1Nc1ncc(Br)c(Nc2ccc3c(=O)n(CC)ncc3c2P(C)(C)=O)n1 (centres unmarked) [Example 582, 3-(7-(4-((4-(1-(4-((5-bromo-4-((5-(dimethylphosphoryl)-2-ethyl-1-oxo-1,2-dihydrophthalazin-6-yl)amino)pyrimidin-2-yl)amino)-5-ethoxy-2-ethylphenyl)piperidin-4-yl)piperazin-1-yl)methyl)piperidin-1-yl)-2-oxobenzo[d]oxazol-3(2H)-yl)piperidine-2,6-dione] | 79.64% | – |
| 5.75 nM | 43.1 nM | 83.8% | CCOc1cc(N2CCC(N3CCN(CCc4cc5oc(=O)n(C6CCC(=O)NC6=O)c5cc4C(F)(F)F)CC3)CC2)c(CC)cc1Nc1ncc(Br)c(Nc2ccc3nc(CC)ccc3c2P(C)(C)=O)n1 (centres unmarked) [Example 616, 3-(6-(2-(4-(1-(4-((5-bromo-4-((5-(dimethylphosphoryl)-2-ethylquinolin-6-yl)amino)pyrimidin-2-yl)amino)-5-ethoxy-2-ethylphenyl)piperidin-4-yl)piperazin-1-yl)ethyl)-2-oxo-5-(trifluoromethyl)benzo[d]oxazol-3(2H)-yl)piperidine-2,6-dione] | 70.93% | – |
| 0.937 nM | 2.99 nM | 89.9% | CCc1ccc2c(P(C)(C)=O)c(Nc3nc(Nc4cc(CC)c(N5CCC(N6CCN(CC7CN(c8cc(F)cc9c8oc(=O)n9C8CCC(=O)NC8=O)C7)CC6)CC5)cc4OC)ncc3Br)ccc2n1 (centres unmarked) [Example 449, 3-(7-(3-((4-(1-(4-((5-bromo-4-((5-(dimethylphosphoryl)-2-ethylquinolin-6-yl)amino)pyrimidin-2-yl)amino)-2-ethyl-5-methoxyphenyl)piperidin-4-yl)piperazin-1-yl)methyl)azetidin-1-yl)-5-fluoro-2-oxobenzo[d]oxazol-3(2H)-yl)piperidine-2,6-dione] | 85.59% | – |
| 0.863 nM | 3.96 nM | 89.7% | CCc1ccc2c(P(C)(C)=O)c(Nc3nc(Nc4cc(CC)c(N5CCC(N6CCN(CCc7c(F)ccc8c7n(C)c(=O)n8C7CCC(=O)NC7=O)CC6)CC5)cc4OC)ncc3Br)ccc2n1 (centres unmarked) [Example 452, 3-(4-(2-(4-(1-(4-((5-bromo-4-((5-(dimethylphosphoryl)-2-ethylquinolin-6-yl)amino)pyrimidin-2-yl)amino)-2-ethyl-5-methoxyphenyl)piperidin-4-yl)piperazin-1-yl)ethyl)-5-fluoro-3-methyl-2-oxo-2,3-dihydro-1H-benzo[d]imidazol-1-yl)piperidine-2,6-dione] | 78.26% | – |
| 7.95 nM | 26.5 nM | 88% | CCOc1cc(N2CCC(N3CCN(C[C@@H]4CCN(c5cc(F)cc6c5oc(=O)n6C5CCC(=O)NC5=O)C4)CC3)CC2)c(CC)cc1Nc1ncc(Br)c(Nc2ccc3nc(CC)ccc3c2P(C)(C)=O)n1 (stereo partly drawn) [Example 476, 3-(7-((S)-3-((4-(1-(4-((5-bromo-4-((5-(dimethylphosphoryl)-2-ethylquinolin-6-yl)amino)pyrimidin-2-yl)amino)-5-ethoxy-2-ethylphenyl)piperidin-4-yl)piperazin-1-yl)methyl)pyrrolidin-1-yl)-5-fluoro-2-oxobenzo[d]oxazol-3(2H)-yl)piperidine-2,6-dione] | 74.62% | – |

The next lines start with the compound.

| Structure (SMILES) | DC50 [1, 3] | DC50 [2] | Dmax [2] | Dmax (%) H1975 # 28 DTC [1, 4] | DC50 ([1]; read-out: DC50(nM) H1975 # 28 DTC; H1975 # 28 DTC cells; EGFR degradation, IC50 (DC50) from curve fit) |
| --- | --- | --- | --- | --- | --- |
| CCc1cc(Nc2ncc(Br)c(Nc3ccc4c(=O)n(C)ncc4c3P(C)(C)=O)n2)c(OC)cc1N1CCC(N2CCN(CCc3ccc4c(c3)oc(=O)n4C3CCC(=O)NC3=O)CC2)CC1 (centres unmarked) [Example 523, 3-(6-(2-(4-(1-(4-((5-bromo-4-((5-(dimethylphosphoryl)-2-methyl-1-oxo-1,2-dihydrophthalazin-6-yl)amino)pyrimidin-2-yl)amino)-2-ethyl-5-methoxyphenyl)piperidin-4-yl)piperazin-1-yl)ethyl)-2-oxobenzo[d]oxazol-3(2H)-yl)piperidine-2,6-dione] | 0.571 nM | 1.97 nM | 95.9% | 72.16% | – |
| CCc1cc(Nc2ncc(Br)c(Nc3cc(F)c4nc(C)ccc4c3P(C)(C)=O)n2)c(OC)cc1N1CCC(N2CCN(CCc3ccc4c(c3)oc(=O)n4C3CCC(=O)NC3=O)CC2)CC1 (centres unmarked) [Example 536, 3-(6-(2-(4-(1-(4-((5-bromo-4-((5-(dimethylphosphoryl)-8-fluoro-2-methylquinolin-6-yl)amino)pyrimidin-2-yl)amino)-2-ethyl-5-methoxyphenyl)piperidin-4-yl)piperazin-1-yl)ethyl)-2-oxobenzo[d]oxazol-3(2H)-yl)piperidine-2,6-dione] | 0.582 nM | 0.867 nM | 96.3% | 73.22% | – |
| CCc1cc(Nc2ncc(Br)c(Nc3ccc4nccnc4c3P(C)(C)=O)n2)c(OC)cc1N1CCC(N2CCN(CCc3cc(F)c([C@H]4CCC(=O)NC4=O)c(F)c3)CC2)CC1 [Example 751, (R)-3-(4-(2-(4-(1-(4-((5-bromo-4-((5-(dimethylphosphoryl)quinoxalin-6-yl)amino)pyrimidin-2-yl)amino)-2-ethyl-5-methoxyphenyl)piperidin-4-yl)piperazin-1-yl)ethyl)-2,6-difluorophenyl)piperidine-2,6-dione] | 0.759 nM | 9.43 nM | – | 92.19% | – |
| CCc1cc(Nc2ncc(Br)c(Nc3ccc4nc(NC5CC5)ccc4c3P(C)(C)=O)n2)c(OC)cc1N1CCC(N2CCN(C(=O)[C@@H]3CCN(c4cc(F)c([C@H]5CCC(=O)NC5=O)c(F)c4)C3)CC2)CC1 [Example 652, (R)-3-(4-((R)-3-(4-(1-(4-((5-bromo-4-((2-(cyclopropylamino)-5-(dimethylphosphoryl)quinolin-6-yl)amino)pyrimidin-2-yl)amino)-2-ethyl-5-methoxyphenyl)piperidin-4-yl)piperazine-1-carbonyl)pyrrolidin-1-yl)-2,6-difluorophenyl)piperidine-2,6-dione] | 1.35 nM | 5.23 nM | 81.1% | 86.65% | – |
| CCOc1cc(N2CCC(N3CCN(CC4CN(c5cccc6c5oc(=O)n6C5CCC(=O)NC5=O)C4)CC3)CC2)c(CC)cc1Nc1ncc(Br)c(Nc2ccc3nc(CC)ncc3c2P(C)(C)=O)n1 (centres unmarked) [Example 566, 3-(7-(3-((4-(1-(4-((5-bromo-4-((5-(dimethylphosphoryl)-2-ethylquinazolin-6-yl)amino)pyrimidin-2-yl)amino)-5-ethoxy-2-ethylphenyl)piperidin-4-yl)piperazin-1-yl)methyl)azetidin-1-yl)-2-oxobenzo[d]oxazol-3(2H)-yl)piperidine-2,6-dione] | – | 5.25 nM | – | 84.02% | 0.616 nM |
| CCOc1cc(N2CCC(N3CCN(CCc4cc(F)c([C@H]5CCC(=O)NC5=O)c(F)c4)CC3)CC2)c(CC)cc1Nc1nccc(Nc2ccc3nc(CC)ncc3c2P(C)(C)=O)n1 [Example 749, (R)-3-(4-(2-(4-(1-(4-((4-((5-(dimethylphosphoryl)-2-ethylquinazolin-6-yl)amino)pyrimidin-2-yl)amino)-5-ethoxy-2-ethylphenyl)piperidin-4-yl)piperazin-1-yl)ethyl)-2,6-difluorophenyl)piperidine-2,6-dione] | 14.8 nM | 294 nM | – | 66.03% | – |
